Assay results published in ChEMBL document CHEMBL4627255, “Efficient synthesis of tert-butyl 3-cyano-3-cyclopropyl-2-oxopyrrolidine-4-carboxylates: Highly functionalized 2-pyrrolidinone enabling access to novel macrocyclic Tyk2 inhibitors” (Bioorg Med Chem Lett, 2020).

Columns and labels:
[1] = biological target: T1, Non-receptor tyrosine-protein kinase TYK2 (Homo sapiens, UniProt P29597); experiment: Inhibition of TYK2 (unknown origin)
[2] = biological target: Tyrosine-protein kinase JAK1 (Homo sapiens, UniProt P23458); experiment: Inhibition of JAK1 (unknown origin)
[3] = organism: Homo sapiens; experiment: Selectivity index, ratio of IC50 for JAK1 (unknown origin) to IC50 for TYK2 (unknown origin)
[4] = biological target: Tyrosine-protein kinase JAK2 (Homo sapiens, UniProt O60674); experiment: Inhibition of JAK2 (unknown origin)
[5] = organism: Homo sapiens; experiment: Selectivity index, ratio of IC50 for JAK2 (unknown origin) to IC50 for TYK2 (unknown origin)
[6] = biological target: T2, Tyrosine-protein kinase JAK3 (Homo sapiens, UniProt P52333); experiment: Inhibition of JAK3 (unknown origin)
T2 sequence (P52333 whole entry): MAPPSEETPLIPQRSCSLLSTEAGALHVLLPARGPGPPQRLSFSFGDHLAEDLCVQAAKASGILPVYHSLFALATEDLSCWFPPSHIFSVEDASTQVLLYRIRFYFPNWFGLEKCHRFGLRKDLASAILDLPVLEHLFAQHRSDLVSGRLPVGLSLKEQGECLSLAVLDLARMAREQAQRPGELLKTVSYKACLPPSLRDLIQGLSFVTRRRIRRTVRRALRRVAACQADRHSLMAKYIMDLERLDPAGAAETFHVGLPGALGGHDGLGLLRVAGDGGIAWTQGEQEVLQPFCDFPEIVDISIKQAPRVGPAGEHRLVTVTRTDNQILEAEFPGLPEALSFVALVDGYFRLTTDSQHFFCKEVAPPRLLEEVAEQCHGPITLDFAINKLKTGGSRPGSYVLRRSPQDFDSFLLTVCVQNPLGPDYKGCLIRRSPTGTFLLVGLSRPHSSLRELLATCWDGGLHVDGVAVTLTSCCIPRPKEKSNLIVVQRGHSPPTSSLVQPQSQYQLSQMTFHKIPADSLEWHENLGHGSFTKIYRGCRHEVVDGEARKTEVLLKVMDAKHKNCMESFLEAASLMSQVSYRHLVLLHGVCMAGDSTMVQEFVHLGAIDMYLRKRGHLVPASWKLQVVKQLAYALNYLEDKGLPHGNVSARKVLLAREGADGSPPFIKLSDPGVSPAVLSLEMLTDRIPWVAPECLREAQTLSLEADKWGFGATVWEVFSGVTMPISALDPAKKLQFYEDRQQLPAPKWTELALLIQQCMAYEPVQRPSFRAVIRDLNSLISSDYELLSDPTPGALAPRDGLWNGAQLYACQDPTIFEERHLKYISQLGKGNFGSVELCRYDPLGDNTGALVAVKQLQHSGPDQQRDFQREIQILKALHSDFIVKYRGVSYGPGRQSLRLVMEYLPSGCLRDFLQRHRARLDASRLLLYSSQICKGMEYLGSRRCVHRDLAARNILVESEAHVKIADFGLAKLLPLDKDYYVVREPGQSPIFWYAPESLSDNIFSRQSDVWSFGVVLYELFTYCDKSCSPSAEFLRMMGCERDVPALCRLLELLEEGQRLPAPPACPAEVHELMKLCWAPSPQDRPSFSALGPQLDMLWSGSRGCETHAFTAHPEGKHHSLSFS

[7] = organism: Homo sapiens; experiment: Selectivity index, ratio of IC50 for JAK3 (unknown origin) to IC50 for TYK2 (unknown origin)
[8] = biological target: T1, Non-receptor tyrosine-protein kinase TYK2; experiment: Inhibition of TYK2 in human Jurkat cells by luciferase reporter gene assay; type: cell-based

Chain of Tyrosine-protein kinase JAK1 (P23458 whole entry): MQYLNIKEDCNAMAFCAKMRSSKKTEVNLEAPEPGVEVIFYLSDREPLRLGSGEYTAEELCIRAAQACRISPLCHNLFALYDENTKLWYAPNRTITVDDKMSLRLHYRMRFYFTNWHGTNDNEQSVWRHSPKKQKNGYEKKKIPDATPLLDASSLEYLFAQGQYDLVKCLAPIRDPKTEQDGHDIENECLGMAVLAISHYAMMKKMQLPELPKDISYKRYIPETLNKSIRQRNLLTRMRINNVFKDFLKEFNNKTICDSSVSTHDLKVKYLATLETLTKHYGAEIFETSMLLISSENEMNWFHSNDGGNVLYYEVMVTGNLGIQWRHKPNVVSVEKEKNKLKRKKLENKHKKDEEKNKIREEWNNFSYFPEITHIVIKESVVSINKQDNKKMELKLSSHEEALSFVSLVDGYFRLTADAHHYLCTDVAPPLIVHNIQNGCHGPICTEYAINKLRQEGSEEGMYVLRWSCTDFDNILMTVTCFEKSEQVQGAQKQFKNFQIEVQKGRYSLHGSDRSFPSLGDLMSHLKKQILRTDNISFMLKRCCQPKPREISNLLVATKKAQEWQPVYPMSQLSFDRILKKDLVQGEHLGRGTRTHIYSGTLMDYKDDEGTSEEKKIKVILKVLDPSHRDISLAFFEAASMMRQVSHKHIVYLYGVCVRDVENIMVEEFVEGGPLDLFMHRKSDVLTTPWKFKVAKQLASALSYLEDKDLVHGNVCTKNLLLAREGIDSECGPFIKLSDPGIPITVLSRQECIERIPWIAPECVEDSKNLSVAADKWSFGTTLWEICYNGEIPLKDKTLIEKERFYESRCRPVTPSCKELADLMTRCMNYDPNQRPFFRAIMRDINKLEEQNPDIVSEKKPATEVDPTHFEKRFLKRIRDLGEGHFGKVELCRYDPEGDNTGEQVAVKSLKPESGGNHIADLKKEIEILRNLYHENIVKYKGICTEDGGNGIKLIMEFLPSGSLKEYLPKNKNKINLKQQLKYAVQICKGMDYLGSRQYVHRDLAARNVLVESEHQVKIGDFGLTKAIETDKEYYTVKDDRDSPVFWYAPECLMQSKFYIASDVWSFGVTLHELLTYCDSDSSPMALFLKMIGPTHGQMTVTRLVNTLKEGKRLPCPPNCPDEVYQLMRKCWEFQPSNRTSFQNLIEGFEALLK
T1 sequence (P29597 whole entry): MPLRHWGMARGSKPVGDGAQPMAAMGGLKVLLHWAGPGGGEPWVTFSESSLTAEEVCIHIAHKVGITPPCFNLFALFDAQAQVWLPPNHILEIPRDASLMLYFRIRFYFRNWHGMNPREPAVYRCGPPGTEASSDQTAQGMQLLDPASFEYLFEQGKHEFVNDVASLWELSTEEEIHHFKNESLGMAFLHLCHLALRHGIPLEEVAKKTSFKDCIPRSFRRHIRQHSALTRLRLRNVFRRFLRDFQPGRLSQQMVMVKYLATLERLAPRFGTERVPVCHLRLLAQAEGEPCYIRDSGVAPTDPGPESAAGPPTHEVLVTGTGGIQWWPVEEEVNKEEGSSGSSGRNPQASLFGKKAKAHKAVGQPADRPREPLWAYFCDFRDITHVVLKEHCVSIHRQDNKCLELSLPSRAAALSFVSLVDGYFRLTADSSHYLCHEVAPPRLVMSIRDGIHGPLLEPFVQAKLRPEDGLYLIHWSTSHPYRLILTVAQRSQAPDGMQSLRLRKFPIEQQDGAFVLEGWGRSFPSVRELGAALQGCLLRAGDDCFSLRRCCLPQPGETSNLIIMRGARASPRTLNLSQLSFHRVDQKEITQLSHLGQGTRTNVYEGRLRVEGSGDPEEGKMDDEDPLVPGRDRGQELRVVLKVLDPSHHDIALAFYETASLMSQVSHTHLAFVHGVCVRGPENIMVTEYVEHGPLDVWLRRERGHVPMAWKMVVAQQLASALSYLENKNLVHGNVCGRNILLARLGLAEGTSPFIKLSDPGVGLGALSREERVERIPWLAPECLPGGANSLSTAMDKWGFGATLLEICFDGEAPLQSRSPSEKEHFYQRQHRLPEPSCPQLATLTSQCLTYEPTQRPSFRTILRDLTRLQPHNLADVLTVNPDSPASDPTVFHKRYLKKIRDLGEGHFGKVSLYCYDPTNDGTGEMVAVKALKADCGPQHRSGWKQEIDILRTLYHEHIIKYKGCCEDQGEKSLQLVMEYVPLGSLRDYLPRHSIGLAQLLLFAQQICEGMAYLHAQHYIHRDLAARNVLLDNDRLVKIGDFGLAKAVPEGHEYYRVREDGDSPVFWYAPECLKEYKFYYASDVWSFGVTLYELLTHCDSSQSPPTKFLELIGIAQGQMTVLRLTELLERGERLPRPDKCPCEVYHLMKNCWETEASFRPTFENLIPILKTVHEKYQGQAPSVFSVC
Chain of Tyrosine-protein kinase JAK2 (O60674 whole entry): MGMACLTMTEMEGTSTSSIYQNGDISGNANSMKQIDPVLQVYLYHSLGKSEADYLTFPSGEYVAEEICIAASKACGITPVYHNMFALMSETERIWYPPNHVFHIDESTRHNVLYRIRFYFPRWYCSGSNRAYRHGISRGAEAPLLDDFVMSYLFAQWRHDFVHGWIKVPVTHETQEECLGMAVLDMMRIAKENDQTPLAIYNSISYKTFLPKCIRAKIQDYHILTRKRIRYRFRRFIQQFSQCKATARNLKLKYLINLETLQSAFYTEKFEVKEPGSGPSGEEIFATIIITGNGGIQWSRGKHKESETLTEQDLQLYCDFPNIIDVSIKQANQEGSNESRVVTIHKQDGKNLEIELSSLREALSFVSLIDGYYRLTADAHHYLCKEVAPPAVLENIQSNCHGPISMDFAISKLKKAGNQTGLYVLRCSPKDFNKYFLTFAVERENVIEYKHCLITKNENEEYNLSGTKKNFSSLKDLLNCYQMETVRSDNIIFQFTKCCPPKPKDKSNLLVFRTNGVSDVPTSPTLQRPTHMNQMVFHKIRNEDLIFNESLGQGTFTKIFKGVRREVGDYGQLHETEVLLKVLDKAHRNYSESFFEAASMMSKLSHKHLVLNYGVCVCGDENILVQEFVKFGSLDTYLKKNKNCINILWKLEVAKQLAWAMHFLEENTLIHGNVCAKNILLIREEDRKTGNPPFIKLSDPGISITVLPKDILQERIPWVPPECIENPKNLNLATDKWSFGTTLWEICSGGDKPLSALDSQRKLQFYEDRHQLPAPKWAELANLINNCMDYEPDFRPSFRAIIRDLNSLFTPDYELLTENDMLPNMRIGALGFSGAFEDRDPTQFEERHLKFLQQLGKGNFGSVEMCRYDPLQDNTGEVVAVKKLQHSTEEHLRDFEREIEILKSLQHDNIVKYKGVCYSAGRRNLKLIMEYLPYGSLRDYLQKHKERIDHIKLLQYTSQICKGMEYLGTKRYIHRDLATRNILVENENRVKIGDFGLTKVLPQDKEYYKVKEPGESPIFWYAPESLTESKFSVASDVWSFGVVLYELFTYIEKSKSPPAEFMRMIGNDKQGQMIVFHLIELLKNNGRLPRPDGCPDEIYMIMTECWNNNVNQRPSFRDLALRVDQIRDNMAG

Compound | IC50 [1] [nM] | IC50 [2] [nM] | Ratio IC50 [3] | IC50 [4] [nM] | Ratio IC50 [5] | IC50 [6] [nM] | Ratio IC50 [7] | IC50 [8] [nM]
N#C[C@]1(C2CC2)C(=O)N2C[C@H]1COCC(=O)NCc1cccc(n1)Nc1cc2ccn1 | 130 | 3000 | 23 | 1000 | 7.7 | 1900 | 15 | 1300
CN(C)C(=O)c1ccc(Nc2cc(N3CC[C@@](C#N)(C4CC4)C3=O)ccn2)nc1 | 1.1 | – | – | – | – | – | – | –
N#C[C@]1(C2CC2)C(=O)N2C[C@H]1COCCCCOCc1cccc(n1)Nc1cc2ccn1 | 4.9 | 710 | 140 | 130 | 27 | 400 | 82 | 210
N#C[C@]1(C2CC2)C(=O)N2C[C@H]1COC/C=C\COCc1cccc(n1)Nc1cc2ccn1 | 5.2 | 580 | 110 | 130 | 25 | 270 | 52 | 260
N#C[C@]1(C2CC2)C(=O)N2C[C@H]1COC/C=C/COCc1cccc(n1)Nc1cc2ccn1 | 12 | 360 | 30 | 140 | 12 | 180 | 15 | 440

The next lines start with the values.

IC50 [1] [nM] | IC50 [2] [nM] | Ratio IC50 [3] | IC50 [4] [nM] | Ratio IC50 [5] | IC50 [6] [nM] | Ratio IC50 [7] | IC50 [8] [nM] | Compound
5.5 | 130 | 24 | 100 | 18 | 43 | 7.8 | 180 | N#C[C@]1(C2CC2)C(=O)N2C[C@H]1COCC(=O)NCCCc1cccc(n1)Nc1cc2ccn1
23 | 910 | 40 | 180 | 7.8 | 130 | 5.7 | 210 | N#C[C@]1(C2CC2)C(=O)N2C[C@H]1COCC(=O)NCCc1cccc(n1)Nc1cc2ccn1
